Experimental data as given in patent US4268630A, “Microbiological production of ketones from C3 -C6 alkanes” (priority 1979, dated 1981).
“Also recorded” adds a separate entry of the source.

What was measured:
[1] = test system: Methylomonas methanica S1 (NRRL B-11,199); assay: Oxidation of sec-alcohols to ketones by resting cell suspension; type: cell-based
Protocol: (§1) The pH of the nutrient medium was adjusted to 7.0 by the addition of acid or base and 50 ml. samples of the nutrient medium were charged into a plurality of 300 ml. shaker flasks. The shaker flasks were inoculated with an inoculating loop of cells from an agar plate containing homogeneous colonies of the microorganisms on the plate (the purity of the isolates was confirmed by microscopic examination). The isolates had been maintained on methanol (0.4% V/V) agar plates or on agar plates under an atmosphere of methane and air having a 1:1 V/V gas ratio which had been transferred every two weeks. For growth on methanol, the medium was supplemented with 0.4% methanol. For growth on methane, the gaseous phase of the inoculated flasks was replaced with a gas mixture comprised on methane and air having a ratio of 1:1 on a V/V basis. The inoculated flasks were sealed air-tight and were incubated on a rotary shaker of orbital radius 2.5 cm. at 250 rpm and at 30° C. for two days until turbidity in the medium had developed. The cells were harvested by centrifugation at 10,000×g. at 4° C. for 30 minutes. The cell pellet was washed twice with a 0.05 M phosphate buffer at a pH of 7.0 (containing 0.02 M MgCl2). The washed cells were then suspended in a 0.05 M phosphate buffer at pH 7.0.
(§2) A 0.5 ml. sample of each washed cell suspension (2 mg. cells) was put into 10 ml. vials at 4° C. which were sealed with a rubber cap. The gaseous phase of the vials was removed with vacuum and then was replaced with a gas mixture of the substrate reactant (i.e., alkane or secondary alcohol) and oxygen at a 1:1 V/V ratio. (In the case of a liquid substrate, i.e., secondary alcohol, 10 μl of the substrate was put in the 10 ml. vials). […] Samples of product (1-3 μl) were withdrawn periodically with a microsyringe and the products were analyzed by gas chromatography (ionization flame detector column).
(§3) The procedure in Example 1 was repeated wherein a plurality of the methane-utilizing methylotrophic microorganisms were each grown aerobically in a nutrient medium containing methane as the alcohol dehydrogenase enzyme inducer and as the major carbon and energy source for growth. The cells were harvested and washed as described in Example 1. The resting microbial cells of the induced methane-grown methane-utilizing methylotrophic microorganisms were then contacted with C3 -C6 secondary alcohols in a buffered solution by the procedure of Example 1.
(§4) In this example, the procedure in Example 1 was repeated except that a plurality of methane-utilizing methylotrophic microorganisms were each aerobically grown in a methanol-containing nutrient medium instead of a methane-containing medium. The nutrients in the medium were the same as indicated in Example 1 except that 0.4% V/V methanol was used as the alcohol dehydrogenase inducer and major source of carbon and energy for growth. Following growth, the cells were harvested and washed as described in Example 1. The resting cells of the induced methanol-grown methylotrophic microorganisms were then contacted with secondary alcohols in a buffered solution by the procedure described in Example 1.

[2] = test system: Methylocystis parvus OBBP (NRRL B-11,198); assay: as above; type: cell-based
Protocol: as §1, §2, §3, §4

[3] = test system: secondary alcohol dehydrogenase (SADH); assay: Activity of purified secondary alcohol dehydrogenase (inhibition, substrate specificity, Km); type: biochemical, Pseudomonas sp. ATCC 21439; settings: for relative percent rate of oxidation: 2-butanol = 100%
Protocol: Secondary alcohol dehydrogenase (SADH) from an obligate methanol utilizer, Pseudomonas sp. ATCC 21439 was purified as follows. […] 0.05 M sodium phosphate buffer, pH 7.0 with 0.5 mM dithiothretol (buffer A) and were disrupted sonically (5×1 min.). The crude extract was separated by centrifugation. The crude extract was heat-treated at 50° C. in a water bath for 10 minutes. The resulting precipitate was removed by centrifugation. To the supernatant solution, 25 ml of protamine sulfate solution (2% solution in 0.1 M Tris base) was added dropwise with continuous stirring. After standing for 30 minutes, the extract was centrifuged. The supernatant solution was fractionated with solid ammonium sulfate. The material precipitating between 30 and 60% saturation was collected and was dialized overnight against buffer A. The The dialized material was applied to a DEAE-cellulose column (3 cm by 35 cm) that had been equilibrated with buffer A. The secondary alcohol dehydrogenase activity was eluted in the void volume. This DEAE-cellulose eluate was concentrated by ammonium sulfate fractionation. Material precipitating between 30 and 50% ammonium sulfate saturation was collected by centrifugation and dialyzed overnight against A. This fraction was further washed and filtered through an Amicon unit with XM 50 membrane. The concentrated fraction (6 ml) inside the Amicon unit was applied to an Affi-Gel Blue column (0.8 cm×18 cm) which had been equilibrated with buffer A for affinity chromatography. The column was washed overnight with buffer A (0.18 ml./min.) and then was eluted with buffer A containing 5 mM NAD. Each 1 ml. fraction was collected.
The purified secondary alcohol dehydrogenase enzyme (SADH) may be used directly for converting C3 -C6 secondary alcohols to the corresponding methyl ketones by the procedures described above; however, a source of NAD^+ must be added to the reaction medium. One can determine the NAD-linked secondary alcohol dehydrogenase activity with a fluorescence spectrophotometer (Perkin Elmer, Model MPF 44A) by following the formation of reduced NAD (Ex 340 nm, Em 460 nm). The assay system (3 ml.) will typically contain: sodium phosphate buffer pH 7.0, 150 μmol; NAD 1.0 μmol; a given amount of enzyme preparation; and 20 μmol secondary alcohol. The reaction is started by the addition of secondary alcohol. One unit of SADH enzyme activity represents the reduction of one nmole NAD per minute.
The effect of metal-chelating agents and thioreagents on the activity of the purified SADH enzyme were studied. […] The possibility of ethanol or n-propanol as an inhibitor was studied.

[4] = test system: Torulopsis sp. Strain A1 (NRRL Y-11,419); assay: Oxidation of sec-alcohols to ketones by cell suspensions of yeasts; type: cell-based
[5] = test system: Methylobacterium organophilum XX (ATCC 27886); assay: Oxidation of sec-alcohols to ketones by resting cell suspension; type: cell-based
Protocol: as §1, §2, §3, §4
(§5) The procedure in Example 1 was repeated except that the methylotrophic microorganisms were each aerobically grown in an alcohol dehydrogenase-inducing growth medium containing methylamine or methyl formate as the alcohol dehydrogenase enzyme inducer and growth substrate instead of methane. The nutrients in the medium were the same as indicated in Example 1 except that 0.4% V/V of the alcohol dehydrogenase-inducer growth substrate was used as the major carbon and energy source. The cells were harvested and washed as described in Example 1. The resting microbial cells were then contacted with C3 -C6 secondary alcohols in a buffered solution by the conversion procedure of Example 1.

[6] = test system: Methylosinus trichosporium OB3b (NRRL B-11,196); assay: as above; type: cell-based
Protocol: as §1, §2, §3, §4, §5

[7] = test system: cell suspensions of C1-utilizers; assay: Production of 2-butanone from 2-butanol / sec-alcohol oxidation by cell suspensions of the strains tested; type: cell-based; settings: cell suspensions of C1-utilizers
Text: The substrate specificity for the oxidation of C3 -C6 secondary alcohols by the strains of C1 -utilizers was studied.

Structure (SMILES) | Conversion Rates, sec-alcohol to methyl ketone ([1]; cells grown on methanol) [μmoles/hr/mg protein] | Conversion Rates, sec-alcohol to methyl ketone ([1]; resting cells grown on methane) [μmoles/hr/mg protein] | Conversion Rates, sec-alcohol to methyl ketone ([2]; cells grown on methanol) [μmoles/hr/mg protein] | Conversion Rates, sec-alcohol to methyl ketone ([2]; resting cells grown on methane) [μmoles/hr/mg protein] | substrate specificity of purified SADH (in words) [3] | Conversion Rate, sec-alcohol to ketone ([4]; growth substrate Ethanol) | Conversion Rate, sec-alcohol to ketone ([4]; growth substrate Methanol) | Conversion Rate, sec-alcohol to ketone ([4]; growth substrate Methylamine) | Conversion Rate, sec-alcohol to ketone ([4]; growth substrate Methylformate) | Conversion Rate, sec-alcohol to ketone ([4]; growth substrate Propylamine) | Conversion Rates, sec-alcohol to methyl ketone ([5]; cells grown on methanol) [μmoles/hr/mg protein] | Conversion Rates, sec-alcohol to methyl ketone ([5]; methyl formate-grown) [μmoles/hr/mg protein] | Conversion Rates, sec-alcohol to methyl ketone ([5]; resting cells grown on methane) [μmoles/hr/mg protein] | Conversion Rates, sec-alcohol to methyl ketone ([6]; cells grown on methanol) [μmoles/hr/mg protein] | Conversion Rates, sec-alcohol to methyl ketone ([6]; methyl formate-grown) [μmoles/hr/mg protein] | Conversion Rates, sec-alcohol to methyl ketone ([6]; resting cells grown on methane) [μmoles/hr/mg protein] | substrate specificity: rate of oxidation of secondary alcohols (in words) [7] | relative percent rate of oxidation [3] [%]
CCC(C)O (centres unmarked) [2-Butanol, 2-butanol] | 0.40 | 0.39 | 1.0 | 1.1 | highest | 4.7 μmoles/hr/mg of protein | 4.9 μmoles/hr/mg of protein | 4.5 μmoles/hr/mg of protein | 4.9 μmoles/hr/mg of protein | 3.8 μmoles/hr/mg of protein | 2.8 | 3.5 | 2.5 | 4.1 | 4.5 | 3.7 | oxidized at the highest rate; also recorded: oxidized at higher rates | 
CCCCC(C)O (centres unmarked) [2-Hexanol, 2-hexanol] | 0.04 | 0.01 | 0.05 | 0.065 | lower rate | 0.20 μmoles/hr/mg of protein | 0.21 μmoles/hr/mg of protein | 0.12 μmoles/hr/mg of protein | 0.25 μmoles/hr/mg of protein | 0.10 μmoles/hr/mg of protein | 1.1 | 0.70 | 0.12 | 0.9 | 0.72 | 0.07 | oxidized at a much slower rate | 2
CCCC(C)O (centres unmarked) [2-Pentanol, 2-pentanol] | 0.45 | 0.25 | 0.82 | 0.80 | lower rate | 1.2 μmoles/hr/mg of protein | 1.0 μmoles/hr/mg of protein | 0.9 μmoles/hr/mg of protein | 1.1 μmoles/hr/mg of protein | 0.62 μmoles/hr/mg of protein | 0.9 | 1.0 | 0.82 | 2.9 | 1.5 | 2.7 | oxidized at a much slower rate | 5
CC(C)O [2-Propanol, 2-propanol] | 0.35 | 0.40 | 0.25 | 0.32 | highest | 4.2 μmoles/hr/mg of protein | 4.5 μmoles/hr/mg of protein | 4.3 μmoles/hr/mg of protein | 4.5 μmoles/hr/mg of protein | 3.2 μmoles/hr/mg of protein | 0.70 | 0.48 | 0.5 | 0.30 | 0.95 | 0.25 | oxidized at higher rates | 85
